Results as given in patent US8349826B2, “Oxazolidinone derivatives” (Actelion Pharmaceuticals Ltd., priority 2008, dated 2013).
Converted amounts (≈) assume the structure as drawn.

Test system: Moraxella catarrhalis A894
Test: MIC by broth microdilution (cation-adjusted Mueller-Hinton Broth, CLSI M7-A7)
Type: cell-based
Procedure: Minimal inhibitory concentrations (MICS; mg/l) were determined in cation-adjusted Mueller-Hinton Broth by a microdilution procedure following the description given in “Procedures for Dilution Antimicrobial Susceptibility Tests for Bacteria that Grow Aerobically”, Approved standard, 7th ed., Clinical and Laboratory Standards Institute (CLSI) Document M7-A7, Wayne, Pa., USA, 2006. All Example compounds were tested against several Gram positive and Gram negative bacteria such as S. aureus, E. faecalis, S. pneumoniae, M. catarrhalis, A. baumanii, E. coli or P. aeruginosa.

| Compound | MIC | MIC Moraxella catarrhalis A894 |
| --- | --- | --- |
| O=C1O[C@H](CNCCCn2c(=O)ccc3ccc(Br)cc32)CN1c1ccc2c(c1)OCCO2 [Example 4, 7-bromo-1-(3-{[(R)-3-(2,3-dihydro-benzo[1,4]dioxin-6-yl)-2-oxo-oxazolidin-5-ylmethyl]-amino}-propyl)-1H-quinolin-2-one] | ≤ 0.031 µg/mL |  |
| COc1ccc2ncc(=O)n(C3CN(CCC[C@@H]4CN(c5ccc6c(c5)NC(=O)CS6)C(=O)O4)C3)c2n1 [Example 23, 6-methoxy-4-(1-{3-[(R)-2-oxo-3-(3-oxo-3,4-dihydro-2H-benzo[1,4]thiazin-6-yl)-oxazolidin-5-yl]-propyl}-azetidin-3-yl)-4H-pyrido[2,3-b]pyrazin-3-one] | ≤ 0.031 µg/mL |  |
| COc1ccc2ccc(=O)n(C[C@@H](O)CNC[C@@H]3CN(c4ccc5c(c4)NC(=O)CS5)C(=O)O3)c2c1 [Example 15, 6-((R)-5-{[(S)-2-hydroxy-3-(7-methoxy-2-oxo-2H-quinolin-1-yl)-propylamino]-methyl}-2-oxo-oxazolidin-3-yl)-4H-benzo[1,4]thiazin-3-one] | ≤ 0.031 µg/mL |  |
| COc1ccc2ncc(=O)n(CCNCCC3CN(c4cc5c(cn4)OCCO5)C(=O)O3)c2n1 (racemic) [Example 31, rac-4-(2-{2-[3-(2,3-dihydro-[1,4]dioxino[2,3-c]pyridin-7-yl)-2-oxo-oxazolidin-5-yl]-ethylamino}-ethyl)-6-methoxy-4H-pyrido[2,3-b]pyrazin-3-one] | 1 µg/mL (≈ 2.13 µM) |  |
| O=C(CCn1c(=O)ccc2ccc(Br)cc21)NC[C@@H]1CN(c2ccc3c(c2)NC(=O)CS3)C(=O)O1 [Example 9, 3-(7-bromo-2-oxo-2H-quinolin-1-yl)-N-[(R)-2-oxo-3-(3-oxo-3,4-dihydro-2H-benzo[1,4]thiazin-6-yl)-oxazolidin-5-ylmethyl]-propionamide] | ≤ 0.031 µg/mL |  |
| COc1ccc2ncc(=O)n(C3CN(CC[C@H]4CN(c5ccc6c(c5)NC(=O)CS6)C(=O)O4)C3)c2n1 [Example 24, 6-methoxy-4-(1-{2-[(S)-2-oxo-3-(3-oxo-3,4-dihydro-2H-benzo[1,4]thiazin-6-yl)-oxazolidin-5-yl]-ethyl}-azetidin-3-yl)-4H-pyrido[2,3-b]pyrazin-3-one] | ≤ 0.031 µg/mL |  |
| COc1ccc2ncc(=O)n(C3CN(CC[C@@H]4CN(c5ccc6c(c5)NC(=O)CS6)C(=O)O4)C3)c2n1 [Example 22, 6-methoxy-4-(1-{2-[(R)-2-oxo-3-(3-oxo-3,4-dihydro-2H-benzo[1,4]thiazin-6-yl)-oxazolidin-5-yl]-ethyl}-azetidin-3-yl)-4H-pyrido[2,3-b]pyrazin-3-one] | ≤ 0.031 µg/mL |  |
| COc1ccc2ncc(=O)n(C[C@H](O)CNC[C@@H]3CN(c4ccc5c(c4)OCCO5)C(=O)O3)c2n1 [Example 26, 4-((R)-3-{[(R)-3-(2,3-dihydro-benzo[1,4]dioxin-6-yl)-2-oxo-oxazolidin-5-ylmethyl]-amino}-2-hydroxy-propyl)-6-methoxy-4H-pyrido[2,3-b]pyrazin-3-one] | 0.25 µg/mL (≈ 0.517 µM) |  |
| COc1ccc2ccc(=O)n(C3CN(CCC4CN(c5ccc6c(c5)NC(=O)CS6)C(=O)O4)C3)c2c1 (racemic) [Example 5, (RS)-6-(5-{2-[3-(7-methoxy-2-oxo-2H-quinolin-1-yl)-azetidin-1-yl]-ethyl}-2-oxo-oxazolidin-3-yl)-4H-benzo[1,4]thiazin-3-one] | 0.25 µg/mL (≈ 0.494 µM) |  |
| COc1ccc2ccc(=O)n(CCC(=O)NC[C@@H]3CN(c4ccc5c(c4)NC(=O)CS5)C(=O)O3)c2c1 [Example 11, 3-(7-methoxy-2-oxo-2H-quinolin-1-yl)-N-[(R)-2-oxo-3-(3-oxo-3,4-dihydro-2H-benzo[1,4]thiazin-6-yl)-oxazolidin-5-ylmethyl]-propionamide] | ≤ 0.031 µg/mL |  |
| COc1ccc2nc(C)c(=O)n(CCCNC[C@@H]3CN(c4ccc5c(c4)NC(=O)CS5)C(=O)O3)c2n1 [Example 35, 6-methoxy-2-methyl-4-(3-{[(R)-2-oxo-3-(3-oxo-3,4-dihydro-2H-benzo[1,4]thiazin-6-yl)-oxazolidin-5-ylmethyl]-amino}-propyl)-4H-pyrido[2,3-b]pyrazin-3-one] | ≤ 0.016 µg/mL |  |
| COc1ccc2ccc(=O)n(CCCNC[C@@H]3CN(c4ccc5c(c4)OCCO5)C(=O)O3)c2c1 [Example 3, 1-(3-{[(R)-3-(2,3-dihydro-benzo[1,4]dioxin-6-yl)-2-oxo-oxazolidin-5-ylmethyl]-amino}-propyl)-7-methoxy-1H-quinolin-2-one] | ≤ 0.031 µg/mL |  |
| COc1ccc2ncc(=O)n(CCCNC[C@@H]3CN(c4ccc5c(c4)NC(=O)CO5)C(=O)O3)c2n1 [Example 19, 6-methoxy-4-(3-{[(R)-2-oxo-3-(3-oxo-3,4-dihydro-2H-benzo[1,4]oxazin-6-yl)-oxazolidin-5-ylmethyl]-amino}-propyl)-4H-pyrido[2,3-b]pyrazin-3-one] | ≤ 0.031 µg/mL |  |
| COc1ccc2ccc(=O)n(C[C@H](O)CNC[C@@H]3CN(c4ccc5c(c4)NC(=O)CS5)C(=O)O3)c2c1.Cl [Example 14, 6-((R)-5-{[(R)-2-hydroxy-3-(7-methoxy-2-oxo-2H-quinolin-1-yl)-propylamino]-methyl}-2-oxo-oxazolidin-3-yl)-4H-benzo[1,4]thiazin-3-one hydrochloride] | ≤ 0.031 µg/mL |  |
| COc1ccc2ncc(=O)n(CCC(=O)NC[C@@H]3CN(c4ccc5c(c4)OCCO5)C(=O)O3)c2c1 [Example 10, N-[(R)-3-(2,3-dihydro-benzo[1,4]dioxin-6-yl)-2-oxo-oxazolidin-5-ylmethyl]-3-(7-methoxy-2-oxo-2H-quinoxalin-1-yl)-propionamide] | 0.125 µg/mL (≈ 0.26 µM) |  |
| COc1ccc2ncc(=O)n(CCCNC[C@@H]3CN(c4ccc(C)c(F)c4)C(=O)O3)c2n1 [Example 29, 4-(3-{[(R)-3-(3-fluoro-4-methyl-phenyl)-2-oxo-oxazolidin-5-ylmethyl]-amino}-propyl)-6-methoxy-4H-pyrido[2,3-b]pyrazin-3-one] | 0.063 µg/mL (≈ 0.143 µM) |  |
| COc1ccc2ncc(=O)n(CCNCCC3CN(c4ccc5c(n4)NC(=O)CO5)C(=O)O3)c2n1 (racemic) [Example 33, rac-6-(5-{2-[2-(6-methoxy-3-oxo-3H-pyrido[2,3-b]pyrazin-4-yl)-ethylamino]-ethyl}-2-oxo-oxazolidin-3-yl)-4H-pyrido[3,2-b][1,4]oxazin-3-one] | ≤ 0.031 µg/mL |  |
| COc1ccc2ncc(=O)n(CCCNC[C@@H]3CN(c4ccc5c(c4)NC(=O)CS5)C(=O)O3)c2n1 [Example 17, 6-methoxy-4-(3-{[(R)-2-oxo-3-(3-oxo-3,4-dihydro-2H-benzo[1,4]thiazin-6-yl)-oxazolidin-5-ylmethyl]-amino}-propyl)-4H-pyrido[2,3-b]pyrazin-3-one] | ≤ 0.031 µg/mL |  |
| COc1ccc2ccc(=O)n(C[C@@H](O)CNC[C@@H]3CN(c4cc5c(cc4F)SCC(=O)N5)C(=O)O3)c2c1 [Example 16, 7-fluoro-6-((R)-5-{[(S)-2-hydroxy-3-(7-methoxy-2-oxo-2H-quinolin-1-yl)-propylamino]-methyl}-2-oxo-oxazolidin-3-yl)-4H-benzo[1,4]thiazin-3-one] | ≤ 0.031 µg/mL |  |
| COc1ccc2c(c1)N(CCCNC[C@@H]1CN(c3ccc4c(c3)OCCO4)C(=O)O1)C(=O)CC2 [Example 28, 1-(3-{[(R)-3-(2,3-dihydro-benzo[1,4]dioxin-6-yl)-2-oxo-oxazolidin-5-ylmethyl]-amino}-propyl)-7-methoxy-3,4-dihydro-1H-quinolin-2-one] | 1 µg/mL (≈ 2.14 µM) |  |
| COc1ccc2ccc(=O)n(CCC(=O)NC[C@@H]3CN(c4ccc5c(c4)OCCO5)C(=O)O3)c2c1 [Example 7, N-[(R)-3-(2,3-dihydro-benzo[1,4]dioxin-6-yl)-2-oxo-oxazolidin-5-ylmethyl]-3-(7-methoxy-2-oxo-2H-quinolin-1-yl)-propionamide] | 0.5 µg/mL (≈ 1.04 µM) |  |
| COc1ccc2ncc(=O)n(CCNCC[C@@H]3CN(c4ccc5c(c4)NC(=O)CO5)C(=O)O3)c2n1 [Example 21, 6-methoxy-4-(2-{2-[(R)-2-oxo-3-(3-oxo-3,4-dihydro-2H-benzo[1,4]oxazin-6-yl)-oxazolidin-5-yl]-ethylamino}-ethyl)-4H-pyrido[2,3-b]pyrazin-3-one] | ≤ 0.031 µg/mL |  |
| COc1ccc2ncc(=O)n(CCNCC[C@@H]3CN(c4ccc5c(c4)NC(=O)CS5)C(=O)O3)c2n1 [Example 20, 6-methoxy-4-(2-{2-[(R)-2-oxo-3-(3-oxo-3,4-dihydro-2H-benzo[1,4]thiazin-6-yl)-oxazolidin-5-yl]-ethylamino}-ethyl)-4H-pyrido[2,3-b]pyrazin-3-one] | ≤ 0.031 µg/mL |  |
| O=C(CCn1c(=O)ccc2ccc(Br)cc21)NC[C@@H]1CN(c2ccc3c(c2)OCCO3)C(=O)O1 [Example 8, 3-(7-bromo-2-oxo-2H-quinolin-1-yl)-N-[(R)-3-(2,3-dihydro-benzo[1,4]dioxin-6-yl)-2-oxo-oxazolidin-5-ylmethyl]-propionamide] | 0.25 µg/mL (≈ 0.473 µM) |  |
| COc1ccc2ncc(=O)n(C[C@H](O)CNC[C@@H]3CN(c4ccc5c(c4)NC(=O)CO5)C(=O)O3)c2n1 [Example 27] |  | <=0.031 mg/l |
| CCOc1ccc(N2C[C@@H](CCN3CC(n4c(=O)cnc5ccc(OC)nc54)C3)OC2=O)cc1 [Example 34, 4-(1-{2-[(R)-3-(4-ethoxy-phenyl)-2-oxo-oxazolidin-5-yl]-ethyl}-azetidin-3-yl)-6-methoxy-4H-pyrido[2,3-b]pyrazin-3-one] | 8 µg/mL (≈ 17.2 µM) |  |
| COc1ccc2ccc(=O)n(CCCNC[C@@H]3CN(c4ccc5c(c4)NC(=O)CS5)C(=O)O3)c2c1 [Example 1, 6-((R)-5-{[3-(7-methoxy-2-oxo-2H-quinolin-1-yl)-propylamino]-methyl}-2-oxo-oxazolidin-3-yl)-4H-benzo[1,4]thiazin-3-one] | ≤ 0.031 µg/mL |  |
| O=C1CSc2ccc(N3C[C@@H](CNCCCn4c(=O)ccc5ccc(Br)cc54)OC3=O)cc2N1 [Example 2] |  | <=0.031 mg/l |
| COc1ccc2ncc(=O)n(C[C@H](O)CNC[C@@H]3CN(c4ccc5c(c4)NC(=O)CS5)C(=O)O3)c2n1 [Example 25, 4-((R)-2-hydroxy-3-{[(R)-2-oxo-3-(3-oxo-3,4-dihydro-2H-benzo[1,4]thiazin-6-yl)-oxazolidin-5-ylmethyl]-amino}-propyl)-6-methoxy-4H-pyrido[2,3-b]pyrazin-3-one] | ≤ 0.031 µg/mL |  |
